One test concerns the target T1, NURR-1/RXRα (Homo sapiens, UniProt P19793).
T1 construct: expressed in transfected cells; host or cells: Cos-7 cells
The experiment in a line: Transactivation test, NURR-1-Gal4/RXRα, luciferase reporter in Cos-7 cells. It counts as cell-based. Conditions: for Emax: COS-7, induction level relative to reference XCT0135908 at 2×10^−5 M (=100%), read-out: hNurr1_RXRaFL Emax (%); for EC50: Cos-7 cells, NURR-1-Gal4/RXRα, luciferase reporter, read-out: hNurr1_RXRaFL EC50. As for the experimental part:
(§1) The ability of the compounds according to the invention to behave as an activator of the heterodimers formed by the NURR-1 nuclear receptor and the RXR nuclear receptors was measured by means of an in vitro test. A transactivation test was used as primary selection (screening) test. Cos-7 cells were cotransfected with a plasmid expressing a chimera of the human NURR-1-Gal4 receptor, a plasmid expressing the human RXR receptor (RXRα or RXRγ receptor) and a 5Gal4pGL3-TK-Luc reporter plasmid. The transfctions were carried out using a chemical agent (Jet PEI). The transfected cells were distributed into 384-well plates and left to stand for 21 hours. At time 24 hours the culture medium was changed. The test products were added (final concentration of between 10^''4 and 3×10^-10 M) to the culture medium. After incubation overnight, the lucifeiase expression was measured after addition of SteadyGlo according to the instructions of the manufacturer (Promega). […] The induction levels (Emax) were calculated relative to the basal activity of each heterodimer.

The target in another test is T2, NURR-1/RXRγ (Homo sapiens, UniProt P48443).
T2 construct: expressed in transfected cells; host or cells: Cos-7 cells
The experiment in a line: Transactivation test, NURR-1-Gal4/RXRγ, luciferase reporter in Cos-7 cells. Conditions: for Emax: COS-7, induction level relative to reference XCT0135908 at 2×10^−5 M (=100%), read-out: hNurr1_RXRgFL Emax (%); for EC50: Cos-7 cells, NURR-1-Gal4/RXRγ, luciferase reporter, read-out: hNurr1_RXRgFL EC50. It counts as cell-based. As for the experimental part:
as §1

The mark [1] stands for this setting: induction level relative to reference XCT0135908 at 2×10^−5 M (=100%).

Where only a bound is given, the exact number is not on record here.

T2 sequence (P48443 whole entry): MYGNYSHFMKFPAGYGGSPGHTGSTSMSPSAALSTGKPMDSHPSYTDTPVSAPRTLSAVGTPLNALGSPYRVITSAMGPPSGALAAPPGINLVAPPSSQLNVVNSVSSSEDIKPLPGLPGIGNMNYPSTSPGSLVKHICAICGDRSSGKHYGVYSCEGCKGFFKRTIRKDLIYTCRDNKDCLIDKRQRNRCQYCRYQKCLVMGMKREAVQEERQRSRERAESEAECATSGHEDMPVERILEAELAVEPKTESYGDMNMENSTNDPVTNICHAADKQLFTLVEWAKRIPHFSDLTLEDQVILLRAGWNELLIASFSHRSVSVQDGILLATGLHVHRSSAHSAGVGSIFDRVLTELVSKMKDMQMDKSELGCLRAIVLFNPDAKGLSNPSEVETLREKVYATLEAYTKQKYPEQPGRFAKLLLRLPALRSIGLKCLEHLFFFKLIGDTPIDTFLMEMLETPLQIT
T2 sequence (P43354 whole entry partner): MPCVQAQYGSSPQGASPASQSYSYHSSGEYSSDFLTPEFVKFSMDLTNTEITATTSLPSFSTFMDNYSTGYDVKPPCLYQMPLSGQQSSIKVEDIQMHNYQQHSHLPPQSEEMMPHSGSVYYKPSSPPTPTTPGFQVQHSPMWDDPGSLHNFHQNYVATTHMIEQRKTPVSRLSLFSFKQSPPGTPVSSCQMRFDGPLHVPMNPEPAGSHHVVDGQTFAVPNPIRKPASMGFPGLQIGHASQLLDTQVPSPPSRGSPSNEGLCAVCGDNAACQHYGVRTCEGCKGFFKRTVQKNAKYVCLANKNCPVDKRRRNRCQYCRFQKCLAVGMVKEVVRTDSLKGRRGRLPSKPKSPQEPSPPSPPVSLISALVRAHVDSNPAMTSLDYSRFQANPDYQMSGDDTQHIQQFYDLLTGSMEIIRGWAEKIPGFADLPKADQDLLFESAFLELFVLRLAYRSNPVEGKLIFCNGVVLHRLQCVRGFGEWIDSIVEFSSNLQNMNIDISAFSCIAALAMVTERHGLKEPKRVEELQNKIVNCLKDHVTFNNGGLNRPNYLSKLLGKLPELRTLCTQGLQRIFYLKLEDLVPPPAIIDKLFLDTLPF
T2 sequence (P04386 1-147 partner limits assumed): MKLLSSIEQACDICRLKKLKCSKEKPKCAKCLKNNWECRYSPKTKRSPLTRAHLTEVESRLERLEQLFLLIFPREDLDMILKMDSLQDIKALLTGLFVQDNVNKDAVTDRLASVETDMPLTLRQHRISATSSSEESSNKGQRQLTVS
T1 sequence (P19793 whole entry): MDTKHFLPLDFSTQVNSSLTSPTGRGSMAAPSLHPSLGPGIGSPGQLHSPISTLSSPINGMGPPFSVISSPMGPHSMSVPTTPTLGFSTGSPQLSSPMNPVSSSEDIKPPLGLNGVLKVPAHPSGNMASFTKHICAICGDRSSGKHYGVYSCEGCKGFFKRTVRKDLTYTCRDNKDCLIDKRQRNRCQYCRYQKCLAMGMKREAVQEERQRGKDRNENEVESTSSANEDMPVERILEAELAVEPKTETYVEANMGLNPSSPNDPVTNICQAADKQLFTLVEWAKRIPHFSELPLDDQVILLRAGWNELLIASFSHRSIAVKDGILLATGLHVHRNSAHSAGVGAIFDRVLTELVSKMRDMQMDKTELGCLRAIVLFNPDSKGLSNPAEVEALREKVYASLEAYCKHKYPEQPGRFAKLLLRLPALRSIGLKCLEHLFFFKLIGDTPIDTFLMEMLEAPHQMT
T1 sequence (P43354 whole entry partner): as the sequence (P43354 whole entry partner) above
T1 sequence (P04386 1-147 partner limits assumed): as the sequence (P04386 1-147 partner limits assumed) above

As to `Cc1cc(N2CC(C(=O)O)C2)cc(-n2cc(C)c3cc(C(F)(F)F)ccc32)c1` [Example 49, 1-[3-methyl-5-[3-methyl-5-(trifluoromethyl)indol-1-yl]phenyl]azetidine-3-carboxylic acid], at NURR-1/RXRα, the Emax came out at 99% and the EC50 worked out at 1 nM. In addition, at NURR-1/RXRγ, the Emax is 114% and the EC50 came out at 1 nM.
`COc1cc(N2CC(C(=O)O)C2)cc(-n2cc(C)c3cc(C(F)(F)F)ccc32)c1` [Example 51, 1-[3-methoxy-5-[3-methyl-5-(trifluoromethyl)indol-1-yl]phenyl]azetidine-3-carboxylic acid]: at NURR-1/RXRα, the Emax was 91% and the EC50 was found to be 17 nM. At NURR-1/RXRγ, the Emax stood at 106% and the EC50 worked out at 29 nM.
On to `Cc1cn(-c2cc(OC(F)(F)F)cc(N3CC(C(=O)O)C3)c2)c2ccc(C(F)(F)F)cc12` [Example 52, 1-[3-[3-methyl-5-(trifluoromethyl)indol-1-yl]-5-(trifluoromethoxy)phenyl]azetidine-3-carboxylic acid], for which the Emax on NURR-1/RXRα was 86%; at NURR-1/RXRγ it was 117%. For the same compound, the EC50 on NURR-1/RXRα was 83 nM; on NURR-1/RXRγ, 117 nM.
On to `Cc1cn(-c2cc(C(C)C)cc(N3CC(C(=O)O)C3)c2)c2ccc(C(F)(F)F)cc12` [Example 53, 1-[3-isopropyl-5-[3-methyl-5-(trifluoromethyl)indol-1-yl]phenyl]azetidine-3-carboxylic acid], for which the values for the Emax on NURR-1/RXRα and on NURR-1/RXRγ were 83% and 76%, respectively. For the same compound, the results for the EC50 on NURR-1/RXRα and on NURR-1/RXRγ were 141 nM and 212 nM, respectively.
On the same counts, the results for `Cc1cn(-c2cc(OC(C)C)cc(N3CC(C(=O)O)C3)c2)c2ccc(C(F)(F)F)cc12` [Example 54, 1-[3-isopropoxy-5-[3-methyl-5-(trifloruomethyl)indol-1-yl]phenyl]azetidine-3-carboxylic acid] are 76%, 100%, 1400 nM and 2240 nM.
As to `Cc1cc(N2CC(C)(C(=O)O)C2)cc(-n2cc(C)c3cc(C(F)(F)F)ccc32)c1` [Example 55, 3-methyl-1-[3-methyl-5-[3-methyl-5-(trifluoromethyl)indol-1-yl]phenyl]azetidine-3-carboxylic acid], at NURR-1/RXRα, the Emax was found to be 80% and the EC50 worked out at 189 nM. Moreover, on NURR-1/RXRγ, the Emax amounted to 73% and the EC50 is 218 nM.
As to `Cc1cn(-c2cc(N3CC(C(=O)O)C3)cc(C(C)(C)C)c2)c2ccc(C(F)(F)F)cc12` [Example 56, 1-[3-tert-butyl-5-[3-methyl-5-(trifluoromethyl)indol-1-yl]phenyl]azetidine-3-carboxylic acid], at NURR-1/RXRα, the Emax turned out to be 46% and the EC50 is more than 5000 nM. Besides, on NURR-1/RXRγ, the Emax worked out at 38% and the EC50 worked out at 1080 nM.
For `Cc1cc(N2CC(C(=O)O)C2)cc(-n2cc(Cl)c3cc(C(F)(F)F)ccc32)c1` [Example 57, 1-[3-[3-chloro-5-(triflurooemthyl)indol-1-yl]-5-methylphenyl]azetidine-3-carboxylic acid], the results for the EC50 at NURR-1/RXRα and at NURR-1/RXRγ were 1 nM and 2 nM, respectively. Further, at NURR-1/RXRα (setting [1]), the “hNurr1_RXRaFL Emax (%)” value was determined as 126%. At NURR-1/RXRγ (setting [1]), the “hNurr1_RXRgFL Emax (%)” value stood at 114%.
Take `Cc1cn(S(=O)(=O)c2cccc(N3CC(C(=O)O)C3)c2)c2ccc(C(F)(F)F)cc12` [Example 59, 1-[3-[3-methyl-5-(trifluoromethyl)indol-1-yl]sulfonylphenyl]azetidine-3-carboxylic acid]: the Emax stood at 68% on NURR-1/RXRα and 39% on NURR-1/RXRγ. For the same compound, the EC50 was determined as 1380 nM at NURR-1/RXRα and 3580 nM on NURR-1/RXRγ.
`Cc1cc(N2CC(C(=O)O)C2)cc(S(=O)(=O)n2cc(C)c3cc(C(F)(F)F)ccc32)c1` [Example 60, 1-[3-methyl-5-[3-methyl-5-(trifluoromethyl)indol-1-yl]sulfonylphenyl]azetidine-3-carboxylic acid]: the results for the Emax on NURR-1/RXRα and on NURR-1/RXRγ were 40% and 24%, respectively. Besides, the EC50 on NURR-1/RXRα was determined as 898 nM; at NURR-1/RXRγ, 1700 nM.
For `CN1CC(C)(C)Oc2cc(C(F)(F)F)cc(-c3cccc(N4CC(C(=O)O)C4)c3)c21` [Example 63, 1-[3-[2,2,4-trimethyl-7-(trifluoromethyl)-3H-1,4-benzoxazine-5-yl]phenyl]azetidine-3-carboylic acid], the Emax is 86% on NURR-1/RXRα and 82% at NURR-1/RXRγ. Also, the EC50 at NURR-1/RXRα was 2 nM; at NURR-1/RXRγ, 5 nM.
On to `CCCC1CNc2c(cc(C(F)(F)F)cc2-c2cccc(N3CC(C(=O)O)C3)c2)O1` (stereo not shown) [Example 67, 1-[3-[2-propyl-7-(trifluoromethyl)-3,4-dihydro-2H-1,4-benzoxazin-5-yl]phenyl]azetidine-3-carboxylic acid], for which the Emax was found to be 67% on NURR-1/RXRα and 82% on NURR-1/RXRγ. The EC50 was determined as 25 nM at NURR-1/RXRα and 28 nM at NURR-1/RXRγ.
As for `CCCNc1ccc(C(C)C)cc1-c1cccc(N2CC(C(=O)O)C2)c1` [Example 68, 1-[3-[5-isopropyl-2-(propylamino)phenyl]phenyl]azetidine-3-carboxylic acid], at NURR-1/RXRα, the Emax worked out at 127% and the EC50 came out at 9 nM. Also, on NURR-1/RXRγ, the Emax is 143% and the EC50 turned out to be 12 nM.
With `CC(C)c1cc2c(c(-c3cccc(N4CC(C(=O)O)C4)c3)c1)CCC(C)(C)O2` [Example 70, 1-[3-(7-isopropyl-2,2-dimethylchroman-5-yl)phenyl]azetidine-3-carboxylic acid], on NURR-1/RXRα, the Emax is 104% and the EC50 stood at 9 nM. Besides, at NURR-1/RXRγ, the Emax turned out to be 120% and the EC50 stood at 12 nM.
On the same counts, the results for `O=C(O)C1CN(c2cccc(-c3cc(C(F)(F)F)cc(Cl)n3)c2)C1` [Example 74, 1-[3-[6-chloro-4-(trifluoromethyl)2-pyridyl]phenyl]azetidine-3-carboxylic acid] are 121%, 185 nM, 86% and 223 nM.
As to `CC(C)(C)c1cc(F)cc(-c2cccc(N3CC(C(=O)O)C3)c2)c1` [Example 75, 1-[3-(3-tert-butyl-5-fluorophenyl)phenyl]azetidine-3-carboxylic acid], the Emax on NURR-1/RXRα came out at 106%; at NURR-1/RXRγ, 85%. In addition, the EC50 was found to be 57 nM at NURR-1/RXRα and 40 nM at NURR-1/RXRγ.
With `O=C(O)C1CN(c2cccc(-c3ccc(Cl)c(C(F)(F)F)n3)c2)C1` [Example 76, 1-[3-[5-chloro-6-(trifluromethyl)-2-pyridyl]phenyl]azetidine-3-carboxylic acid], at NURR-1/RXRα, the Emax amounted to 71% and the EC50 was found to be 741 nM. Also, on NURR-1/RXRγ, the Emax worked out at 51% and the EC50 was determined as 2560 nM.
For `O=C(O)C1CN(c2cccc(-c3cnc(Cl)c(C(F)(F)F)c3)c2)C1` [Example 77, 1-[3-[6-chloro-5-(trifluoromethyl)-3-pyridyl]phenyl]azetidine-3-carboxylic acid], the values for the Emax at NURR-1/RXRα and on NURR-1/RXRγ were 67% and 105%, respectively. Further, the EC50 turned out to be 423 nM at NURR-1/RXRα and 1200 nM at NURR-1/RXRγ.
As for `O=C(O)C1CN(c2cccc(-c3cc(Cl)nc(C(F)(F)F)c3)c2)C1` [Example 78], at NURR-1/RXRα, the Emax is 93% and the EC50 was 207 nM. For the same compound, at NURR-1/RXRγ, the Emax was found to be 98% and the EC50 stood at 339 nM.
